In ChEMBL document CHEMBL5725974, “ASK1 inhibitor compounds and uses thereof” (2018):

Target: T1, Mitogen-activated protein kinase kinase kinase 5 (Homo sapiens, UniProt Q99683)
T1 sequence (Q99683 whole entry): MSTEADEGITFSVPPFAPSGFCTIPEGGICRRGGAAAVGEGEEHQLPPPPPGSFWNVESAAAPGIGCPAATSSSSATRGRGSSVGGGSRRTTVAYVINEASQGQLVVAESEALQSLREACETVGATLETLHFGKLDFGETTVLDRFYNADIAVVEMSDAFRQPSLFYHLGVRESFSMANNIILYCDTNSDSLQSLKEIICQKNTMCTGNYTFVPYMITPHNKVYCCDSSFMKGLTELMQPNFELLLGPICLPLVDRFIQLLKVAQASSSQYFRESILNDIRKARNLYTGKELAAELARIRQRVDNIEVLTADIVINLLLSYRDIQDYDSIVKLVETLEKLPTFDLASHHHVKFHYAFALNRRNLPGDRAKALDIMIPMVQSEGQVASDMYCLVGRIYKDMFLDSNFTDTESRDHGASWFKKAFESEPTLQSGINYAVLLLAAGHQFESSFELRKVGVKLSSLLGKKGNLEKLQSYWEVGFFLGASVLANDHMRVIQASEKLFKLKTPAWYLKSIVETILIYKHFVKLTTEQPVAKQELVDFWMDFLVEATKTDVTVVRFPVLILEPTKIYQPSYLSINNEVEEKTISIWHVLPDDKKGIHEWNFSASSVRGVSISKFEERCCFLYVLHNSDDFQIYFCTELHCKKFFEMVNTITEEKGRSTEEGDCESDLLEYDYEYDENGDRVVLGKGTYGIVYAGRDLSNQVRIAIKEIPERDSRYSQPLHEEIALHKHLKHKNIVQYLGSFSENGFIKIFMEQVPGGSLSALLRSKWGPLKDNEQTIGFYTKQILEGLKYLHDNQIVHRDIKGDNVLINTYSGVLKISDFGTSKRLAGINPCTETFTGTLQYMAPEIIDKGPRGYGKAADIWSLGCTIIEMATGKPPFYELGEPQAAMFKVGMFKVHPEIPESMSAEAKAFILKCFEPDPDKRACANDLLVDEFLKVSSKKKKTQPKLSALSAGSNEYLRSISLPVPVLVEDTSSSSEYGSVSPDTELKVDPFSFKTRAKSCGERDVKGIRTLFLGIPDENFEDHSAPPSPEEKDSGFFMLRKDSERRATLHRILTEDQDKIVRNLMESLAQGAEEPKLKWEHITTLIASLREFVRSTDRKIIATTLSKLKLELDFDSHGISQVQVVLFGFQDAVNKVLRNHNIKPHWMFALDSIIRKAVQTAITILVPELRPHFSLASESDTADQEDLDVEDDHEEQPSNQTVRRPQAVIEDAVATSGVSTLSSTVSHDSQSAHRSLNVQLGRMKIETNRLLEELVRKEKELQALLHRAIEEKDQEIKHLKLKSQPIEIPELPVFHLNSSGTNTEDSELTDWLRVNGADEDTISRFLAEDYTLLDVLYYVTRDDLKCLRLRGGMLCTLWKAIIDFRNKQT
Assay: ASK1 Kinase Assay: The ASK1 enzymatic assay was run following Promega ASK1 Kinase Enzyme System (Cat #V3881). The kit provides the protocol, enzymes and all reagents necessary to run an assay. Firstly, the compounds, enzyme, substrate and ATP were diluted in provided assay buffer. The final concentration of the enzyme was 50 nM, substrate (Myelin basic protein) 1 μg/ml and ATP 10 μM. The compound and the enzyme were pre-incubated in a 384 well white solid bottom plate (Greiner, Cat#784075) for 10 minutes. After incubation, the substrate and ATP were added and incubated for further 60 minutes. After 60 minutes, ADP-Glo™ was added and plate was incubated for another 40 minutes. After 40 minutes, Kinase Detection Reagent was added and the plate was incubated for 45 minutes. After 45 minutes, plate was read on Perkin Elmer EnVision using luminescence read (0.5 seconds/well).

IC50: < 0.2 µM
Compound: O=C(NC1CC1)c1ccc2c(c1)CN(c1cccc(-c3nncn3C3CC3)n1)C2=O
